Measured values as given in patent US20250352609A1, “Methods For Treating Alzheimer's Disease or Dementia Using A Calcilytic And A Calcimimetic” (The United States Government As Represented By The …, priority 2024, published 2025).

How the values were obtained:
APP^NL-G-F mice = assay: Y-maze test, cognitive declines in EOAD mice, Etelcalcetide; assay type: in vivo; conditions: APP^NL-G-F mice at 10 MOA, daily (5 days/week) injections 500 μg/kg beginning at 6 MOA
Method: Spont Alt indices of Y-maze test in 10 MOA mice carrying humanized Ab sequence without (bAb-KI) or with (APP^NLGF) 4 mutations identified from EOAD patients after daily (5 days/week) injections of vehicle, 500 μg/kg Etelcalcetide (Etel) and/or 12 μmole/kg NPS-2143 (2143) beginning at 6 MOA. Mean±SE, p values by one-way ANOVA, n=19-37 mixed male and female mice/group.
(§1) Based on the outcomes of the above genetically manipulated mice, it was tested whether pharmacological manipulations of serum PTH levels with blood-brain barrier (BBB)-impermeable calcimimetics (e.g., etelcalcetide) that activate CaSR homodimers in PTCs to suppress PTH secretion can prevent the cognitive declines in the aging and APP^NL-G-F/NL-G-F mice.

serum PTH (sPTH) = assay: Serum PTH in aging-associated HPT mice; assay type: in vivo; conditions: aged male C57/B6 mice; aducanumab 40 mg/kg/week by twice weekly injections for 5 weeks; Etelcalcetide 0.3 mg/kg once daily
18 MOA male C57/B6 mice = assay: Y-maze test, aging-induced cognitive declines, Etelcalcetide; assay type: in vivo; conditions: 18 MOA vs 5 MOA male C57/B6 mice, 8 weeks daily (5 days/week) injections, 500 μg/kg
Method: Spont Alt indices of Y-maze test in 5 and 18 MOA male C57/B6 mice after 8 weeks of daily (5 days/week) injections of vehicle, 500 μg/kg Etelcalcetide (Etel) and/or 12 μmole/kg NPS-2143 (2143). Mean±SE, p values by one-way ANOVA, n=6-12 mice/group.
as §1

Tau phosphorylation = assay: Aβ1-42-stimulated PTH secretion in vitro with Tau phosphorylation inhibitor; assay type: cell-based; conditions: inhibition of Tau phosphorylation
From the text: In support of this finding, inhibition of Tau phosphorylation by a staurosporine analogue (K252a) blocked the ability of Aβ1-42 to stimulate PTH secretion in vitro, and the increased tonic PTH hypersecretion seen in mice with PTC-targeted Vdr gene KO (^PTCVdr^Dflox/Dflox), mimicking vitamin D deficiency, was reversed by a concurrent ablation of App (^PTCVdr^Dflox/Dflox; App^Dflox/Dflox) or the TAU-encoding Mapt (^PTCVdr^Dflox/Dflox; Mapt−/−) gene.

human PTGs = assay: Tonic PTH secretion from cultured human PTGs; assay type: cell-based; conditions: exogenous Aβ1-42 0.3 to 1000 nM, concentration-dependent, vs control
From the text: (§2) This stimulatory effect was absent in murine PTGs lacking either CaSR or GABAB1R.

murine PTGs = assay: Ex vivo tonic PTH secretion from cultured murine PTGs; assay type: cell-based
Method: Ex vivo assessments of the impact of different concentrations (0.3 to 1000 nM) Aβ1-42 on PTH secretion from intact PTGs cultured from the 3-month-old mice with homozygous parathyroid-specific App gene KO (square); homozygous parathyroid-specific App and Casr double gene KO (up triangle); homozygous parathyroid-specific App and Gabbr1 double gene KO (down triangle); or homozygous parathyroid-specific App, Casr, and Gabbr1 triple gene KO (diamond). Mean±s.e.m. of n mice as indicated in the plots.
as §2

[1] = test system: iPSC-derived neurons co-expressing CASR and GABAB1R; assay: cAMP production in iPSC-derived neurons challenged by Aβ42; assay type: cell-based; conditions: iPSC-derived neurons perfused with Aβ42
From the text: Averaged time courses of CAMP in normal iPSC-derived neurons natively expressing CaSR and GABAB1R and challenged by Ab1-42. Cells were continuously perfused with buffer without or with Aβ42 (horizontal bar). Data represent the mean value s.e.m. of n=20 cells and N=3 experiments.
Given that HPT can cause chronic inflammation (Cheng, S. P., et al. Mediators Inflamm 2014, 709024 (2014); çrakolu, M. F. et al. ENT Updates 11, 115-119 (2021); and Almqvist, E. G., et al. Scandinavian journal of clinical and laboratory investigation 71, 139-144 (2011)) and that CaSR expression increases in inflammatory responses in pathological conditions (Jager, E. et al. Nat Commun 11, 4243 (2020); and Iamartino, L. & Brandi, M. L. Front Physiol 13, 1059369 (2022)), including in AD, through interleukin (IL)-1β (IL1β) and IL-6-induced NFkb cis-acting response of CASR gene (Canaff, L. & Hendy, G. N. J Biol Chem 280, 14177-14188 (2005); and Hendy, G. N. & Canaff, Semin Cell Dev Biol 49, 37-43 (2016)), HPT-induced inflammation could be a leading cause for CaSR upregulation as well as for Aβ buildup in AD (Kinney, J. W. et al. Alzheimers Dement (N Y) 4, 575-590 (2018); Ilievski, V. et al. PloS one 13, e0204941 (2018); and Yamamoto, M. et al. Am J Pathol 170, 680-692 (2007)).

Compound: CC(=O)N[C@H](CSSC[C@H](N)C(=O)O)C(=O)N[C@H](C)C(=O)N[C@H](CCCNC(=N)N)C(=O)N[C@H](CCCNC(=N)N)C(=O)N[C@H](CCCNC(=N)N)C(=O)N[C@H](C)C(=O)N[C@H](CCCNC(=N)N)C(N)=O [Etelcalcetide]
- early cognitive declines, Y-maze Spont Alt index (APP^NL-G-F mice): partially prevented
- reduction of sPTH (serum PTH (sPTH)): > 80%
- cognitive declines, Y-maze Spont Alt index (18 MOA male C57/B6 mice): partially prevented

Compound: COC(=O)[C@@]1(O)C[C@H]2O[C@]1(C)n1c3ccccc3c3c4c(c5c6ccccc6n2c5c31)C(=O)NC4 [K252a]
- ability of Aβ1-42 to stimulate PTH secretion (Tau phosphorylation): blocked

Compound: Aβ1-42: b-amyloid (Ab1-42), derivative of amyloid precursor protein, added exogenously to PTG cultures
- stimulation of tonic PTH secretion (human PTGs): ≤ 1.9 fold
- stimulation of tonic PTH secretion (murine PTGs; exogenous Aβ1-42 0.3 to 1000 nM, concentration-dependent, vs control): up to 1.6 fold
- stimulatory effect on PTH secretion in PTGs lacking either CaSR or GABAB1R (murine PTGs; murine PTGs lacking either CaSR or GABAB1R): absent
- Ca^2+-set point (murine PTGs; murine and human PTGs, Aβ1-42 0.3 to 1000 nM): without shifting
- cAMP production [1]: stimulating cAMP production
